PMC9032380, “Functional exploration of the glycoside hydrolase family GH113” (PLoS ONE, 2022)

Assays:
Assay in all cases: HPAEC-PAD of hydrolysis products
Format in all cases: biochemical
AIQ46016 = biological target: T1, AIQ46016 (Paenibacillus sp. FSL R7-0273, UniProt A0A089KA84); conditions: […] M6, […] phosphate pH […] C; overnight incubation
T1 construct: gene R70723_09070; predicted GH113 catalytic domain; no signal peptide predicted; N-terminal His6 tag (pHTP1), E. coli BL21(DE3); codon-optimised synthetic gene
T1 sequence (A0A089KA84 1-318): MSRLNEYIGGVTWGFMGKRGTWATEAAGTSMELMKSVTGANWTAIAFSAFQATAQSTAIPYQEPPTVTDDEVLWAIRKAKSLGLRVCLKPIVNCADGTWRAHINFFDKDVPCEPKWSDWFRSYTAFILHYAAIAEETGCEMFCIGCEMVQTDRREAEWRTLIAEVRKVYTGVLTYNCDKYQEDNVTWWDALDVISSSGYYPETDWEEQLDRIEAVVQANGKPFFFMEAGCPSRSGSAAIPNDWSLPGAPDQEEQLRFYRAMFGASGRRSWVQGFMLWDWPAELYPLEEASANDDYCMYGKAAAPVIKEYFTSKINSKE

AGY82530 = biological target: T2, AGY82530 (Carnobacterium inhibens, UniProt A0ABR7TC15); conditions: […] M6, […] phosphate pH […] C; overnight incubation
T2 construct: gene GLO26_06385; predicted GH113 catalytic domain; no signal peptide predicted; N-terminal His6 tag (pHTP1), E. coli BL21(DE3); codon-optimised synthetic gene
T2 sequence (A0ABR7TC15 1-309): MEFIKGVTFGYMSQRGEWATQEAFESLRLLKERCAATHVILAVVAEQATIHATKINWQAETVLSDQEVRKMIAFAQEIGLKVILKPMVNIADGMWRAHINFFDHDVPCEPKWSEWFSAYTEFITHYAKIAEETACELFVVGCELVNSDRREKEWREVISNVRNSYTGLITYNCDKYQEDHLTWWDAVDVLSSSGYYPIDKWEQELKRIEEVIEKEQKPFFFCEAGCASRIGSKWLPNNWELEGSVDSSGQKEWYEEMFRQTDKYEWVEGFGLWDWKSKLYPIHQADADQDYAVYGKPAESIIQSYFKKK

EDP22100 = biological target: T3, EDP22100 (Faecalibacterium prausnitzii, UniProt A8S9T0); conditions: 100 uM M6, 10 mM phosphate pH 7.5, 25 C; reaction time course
T3 construct: gene FAEPRAM212_01134; predicted GH113 catalytic domain; no signal peptide predicted; N-terminal His6 tag (pHTP1), E. coli BL21(DE3); codon-optimised synthetic gene
T3 sequence (A8S9T0 1-309): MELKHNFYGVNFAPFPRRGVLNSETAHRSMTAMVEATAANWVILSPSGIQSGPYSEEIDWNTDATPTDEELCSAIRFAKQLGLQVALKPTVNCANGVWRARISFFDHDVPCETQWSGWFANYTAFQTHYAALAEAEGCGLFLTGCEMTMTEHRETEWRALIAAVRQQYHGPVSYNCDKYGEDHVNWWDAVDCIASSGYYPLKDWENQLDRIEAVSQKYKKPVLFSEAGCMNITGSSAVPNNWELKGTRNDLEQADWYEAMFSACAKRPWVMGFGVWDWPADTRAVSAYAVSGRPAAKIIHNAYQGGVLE

OC[C@H]1O[C@@H](O[C@H]2[C@H](O)[C@H](O)[C@H](O[C@H]3[C@H](O)[C@H](O)[C@H](O[C@H]4[C@H](O)[C@H](O)[C@H](O[C@H]5[C@H](O)[C@H](O)[C@H](O[C@H]6[C@H](O)[C@H](O)C(O)O[C@@H]6CO)O[C@@H]5CO)O[C@@H]4CO)O[C@@H]3CO)O[C@@H]2CO)[C@@H](O)[C@@H](O)[C@@H]1O (stereo partly drawn) [M6, mannohexaose]
HPAEC-PAD of hydrolysis products (AIQ46016): end-products released by AGY82530, AGF59019, AIQ46016 and AIQ63165 after overnight incubation with M6 | HPAEC-PAD of hydrolysis products (AGY82530): end-products released by AGY82530, AGF59019, AIQ46016 and AIQ63165 after overnight incubation with M6 | HPAEC-PAD of hydrolysis products (EDP22100): confirming the release of mannose from mannohexaose (M6)
